{"source": "paper PMC5674900", "about": "“Identification of new channels by systematic analysis of the mitochondrial outer membrane” (The Journal of Cell Biology, 2017)", "key": {"[1]": {"target": "T1, Ayr1 (Saccharomyces cerevisiae, UniProt P40471, G20A/G22A)", "T1 construct": "ORF with His10 tag, expressed in E. coli BL21(DE3), purified in urea, reconstituted into liposomes / planar lipid bilayer; 33 kD", "T1 sequence (P40471 1-297 G20A/G22A)": "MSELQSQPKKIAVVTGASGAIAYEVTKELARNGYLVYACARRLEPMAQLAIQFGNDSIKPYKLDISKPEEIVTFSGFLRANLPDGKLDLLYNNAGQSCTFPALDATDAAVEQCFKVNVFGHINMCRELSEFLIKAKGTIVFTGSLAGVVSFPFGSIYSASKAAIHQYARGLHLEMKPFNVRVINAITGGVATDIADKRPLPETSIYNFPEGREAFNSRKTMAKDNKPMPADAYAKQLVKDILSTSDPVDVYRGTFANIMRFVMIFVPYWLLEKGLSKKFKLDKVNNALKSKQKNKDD", "assay": "planar lipid bilayer electrophysiology, reconstituted channel", "format": "biochemical", "details": "1 mM NADPH; symmetrical 250 mM KCl, pH 7.0; activator of channel gating; NADPH-binding motif mutant, effect mostly abolished"}, "[2]": {"target": "T2, Ayr1 (Saccharomyces cerevisiae, UniProt P40471)", "T2 construct": "ORF with His10 tag, expressed in E. coli BL21(DE3), purified in urea, reconstituted into liposomes / planar lipid bilayer; 33 kD", "T2 sequence (P40471 1-297)": "T1 sequence (P40471 1-297 G20A/G22A) with A20G, A22G", "assay": "planar lipid bilayer electrophysiology, reconstituted channel", "format": "biochemical", "details": "1 mM NADPH; symmetrical 250 mM KCl, pH 7.0; activator of channel gating"}}, "note": "Residue numbers refer to the chain shown, from its start.", "data": [{"compound": "NC(=O)C1=CN([C@@H]2O[C@H](COP(=O)(O)OP(=O)(O)OC[C@H]3O[C@@H](n4cnc5c(N)ncnc54)[C@H](OP(=O)(O)O)[C@@H]3O)[C@@H](O)[C@H]2O)C=CC1", "note": "[NADPH]", "values": [{"measurement": "planar lipid bilayer electrophysiology, reconstituted channel", "setting": "[1]", "value": "the effect of NAPDH was mostly abolished, and no increase of the gating frequency was observed"}, {"measurement": "planar lipid bilayer electrophysiology, reconstituted channel", "setting": "[2]", "value": "NADPH strongly stimulated the frequency of gating between the distinct states"}]}]}
